Laboratory results as given in patent publication US9062041B2 (Bayer Intellectual Property GmbH, priority 2011, dated 2015).

Legend:
Assay type in all cases: cell-based
[1] = molecular target: EP2 subtype of the human PGE2 receptor (Homo sapiens, UniProt P43116); assay: cAMP antagonism test on the human EP2 receptor (HTRF cAMP detection); conditions: hEP2 receptor, read-out: Antagonism hEP2 IC50
How it was run: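 Cells expressing human EP2 preincubated 20 min at RT with compound (0.8 nM–16.5 μM), then stimulated 60 min with PGE2 (3× solution 1.5 nM) in PBS-IBMX. After 20 min lysis, cAMP measured by competitive HTRF with cAMP-d2 and Eu cryptate anti-cAMP antibody (665/620 nm ratio).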

[2] = molecular target: EP4 subtype of the human PGE2 receptor (Homo sapiens, UniProt P35408); assay: cAMP antagonism test on the human EP4 receptor (HTRF cAMP detection); conditions: selectivity towards hEP4, IC50 measured by cAMP antagonism test
Chain of EP4 subtype of the human PGE2 receptor (P35408 whole entry): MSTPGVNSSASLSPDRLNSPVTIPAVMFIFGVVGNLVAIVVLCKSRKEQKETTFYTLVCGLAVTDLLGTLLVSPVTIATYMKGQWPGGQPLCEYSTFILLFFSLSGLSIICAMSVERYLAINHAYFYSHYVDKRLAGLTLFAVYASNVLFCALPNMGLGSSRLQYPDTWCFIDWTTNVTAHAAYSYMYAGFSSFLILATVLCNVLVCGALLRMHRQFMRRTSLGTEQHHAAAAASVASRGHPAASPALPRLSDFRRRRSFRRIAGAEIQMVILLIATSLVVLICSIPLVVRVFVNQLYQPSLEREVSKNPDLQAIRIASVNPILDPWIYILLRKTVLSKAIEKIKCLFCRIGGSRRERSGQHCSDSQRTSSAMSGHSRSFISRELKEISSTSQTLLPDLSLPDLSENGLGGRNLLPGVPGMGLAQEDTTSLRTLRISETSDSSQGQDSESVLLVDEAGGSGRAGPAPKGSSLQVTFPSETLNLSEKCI
How it was run: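 Cells expressing human EP4 preincubated 20 min at RT with compound (0.8 nM–16.5 μM), then stimulated with PGE2 (0.3 nM in 3× solution, with IBMX) 60 min at RT. After lysis, cAMP measured by HTRF competition (665/620 nm ratio); antagonism seen as rise in FRET signal.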

human PGD receptor = molecular target: T1, human PGD receptor (Homo sapiens, UniProt Q13258); assay: cAMP antagonism test on the human prostaglandin D receptor (HTRF cAMP detection); conditions: selectivity towards hDP, IC50 measured by cAMP antagonism test
T1 sequence (Q13258 1-359): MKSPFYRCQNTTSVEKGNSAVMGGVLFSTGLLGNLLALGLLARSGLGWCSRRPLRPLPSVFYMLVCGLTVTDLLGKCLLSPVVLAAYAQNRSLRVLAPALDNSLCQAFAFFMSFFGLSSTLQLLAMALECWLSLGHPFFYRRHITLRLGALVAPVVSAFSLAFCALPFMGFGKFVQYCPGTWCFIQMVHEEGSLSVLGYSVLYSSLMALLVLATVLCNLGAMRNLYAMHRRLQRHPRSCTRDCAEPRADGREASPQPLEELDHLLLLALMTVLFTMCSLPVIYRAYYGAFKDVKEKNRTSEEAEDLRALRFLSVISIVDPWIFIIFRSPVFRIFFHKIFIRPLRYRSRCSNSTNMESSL
How it was run: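 Cells pre-mixed with cAMP-d2 were preincubated with compound (0.8 nM–16.5 μM) for 20 min at RT, then stimulated with 3× PGD2 solution (6 nM, in PBS-IBMX) for 30 min at RT. After lysis (20 min), HTRF read at 665/620 nm; antagonism seen as rise in FRET ratio.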

Chain of EP2 subtype of the human PGE2 receptor (P43116 whole entry): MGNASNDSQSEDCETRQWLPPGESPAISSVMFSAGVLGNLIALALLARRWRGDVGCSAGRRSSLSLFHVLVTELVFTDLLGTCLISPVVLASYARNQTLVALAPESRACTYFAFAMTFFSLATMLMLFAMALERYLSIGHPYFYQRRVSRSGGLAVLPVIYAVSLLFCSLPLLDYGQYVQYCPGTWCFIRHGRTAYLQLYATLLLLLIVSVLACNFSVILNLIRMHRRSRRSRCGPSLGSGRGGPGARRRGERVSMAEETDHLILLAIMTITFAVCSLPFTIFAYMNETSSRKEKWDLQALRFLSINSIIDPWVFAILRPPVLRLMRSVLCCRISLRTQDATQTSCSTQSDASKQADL

IC50 [1] | Selectivity hEP2/hEP4 [2] | Selectivity hEP2/hDP (human PGD receptor) | Structure (SMILES)
43 nM | xxx (xxx > 100) | xxx (xxx > 100) | Cc1c(C(=O)NCC(F)(F)F)ccc2nn(CC3CCN(C(=O)c4ccc(-c5ccc(C(F)(F)F)cc5)cc4)CC3)cc12 [Example 315, 4-methyl-N-(2,2,2-trifluoroethyl)-2-[(1-{[4′-(trifluoromethyl)biphenyl-4-yl]-carbonyl}piperidin-4-yl)methyl]-2H-indazol-5-carboxamide]
3.14 nM | xxx (xxx > 100) | xxx (xxx > 100) | COCCNC(=O)c1ccc2nn(CC3CCN(C(=O)c4ccc(-c5ccc(F)cc5)c(C)c4)CC3)cc2c1C [Example 390, 2-({1-[(4′-fluoro-2-methylbiphenyl-4-yl)carbonyl]piperidin-4-yl}methyl)-N-(2-methoxyethyl)-4-methyl-2H-indazol-5-carboxamide]
5.84 nM | xxx (xxx > 100) | xxx (xxx > 100) | COCCNC(=O)c1ccc2nn(CC3CCN(C(=O)c4ccc(-c5ccc(C#N)cc5C)cc4)CC3)cc2c1C [Example 367, 2-({1-[(4′-cyano-2′-methylbiphenyl-4-yl)carbonyl]piperidin-4-yl}methyl)-N-(2-methoxyethyl)-4-methyl-2H-indazol-5-carboxamide]
25.2 nM | xxx (xxx > 100) | xxx (xxx > 100) | COCCNC(=O)c1ccc2nn(CC3CCN(C(=O)c4ccc(S(=O)(=O)C(F)(F)F)cc4)CC3)cc2c1C [Example 25, N-(2-methoxyethyl)-4-methyl-2-[(1-{4-[(trifluoromethyl)-sulphonyl]benzoyl}-piperidin-4-yl)-methyl]-2H-indazol-5-carboxamide]
42.4 nM | xxx (xxx > 100) | xxx (xxx > 100) | COCCNC(=O)c1ccc2nn(CC3CCN(C(=O)c4ccc(Oc5cccnc5)cc4)CC3)cc2c1C [Example 343, N-(2-methoxyethyl)-4-methyl-2-({1-[4-(3-pyridyloxy)benzoyl]piperidin-4-yl}methyl)-2H-indazol-5-carboxamide]
6.11 nM | xxx (xxx > 100) | xxx (xxx > 100) | COCCNC(=O)c1ccc2nn(CC3CCN(C(=O)c4ccc(-c5ccc(Cl)cc5C)cc4)CC3)cc2c1C [Example 371, 2-({1-[(4′-chloro-2′-methylbiphenyl-4-yl)carbonyl]piperidin-4-yl}methyl)-N-(2-methoxyethyl)-4-methyl-2H-indazol-5-carboxamide]
40 nM | xxx (xxx > 100) | xxx (xxx > 100) | Cc1c(C(=O)NCC(F)(F)F)ccc2nn(CC3CCN(C(=O)c4ccc(SC(F)(F)F)cc4)CC3)cc12 [Example 288, 4-methyl-N-(2,2,2-trifluoroethyl)-2-[(1-{4-[(trifluoromethyl)sulphanyl]benzoyl}-piperidin-4-yl)methyl]-2H-indazol-5-carboxamide]
19.4 nM | xxx (xxx > 100) | xxx (xxx > 100) | COCCNC(=O)c1ccc2nn(CC3CCN(C(=O)c4ccc(-c5cnc(C(F)(F)F)nc5)cc4)CC3)cc2c1C [Example 382, N-(2-methoxyethyl)-4-methyl-2-[(1-{4-[2-(trifluoromethyl)pyrimidin-5-yl]-benzoyl}piperidin-4-yl)methyl]-2H-indazol-5-carboxamide]
8.92 nM | xxx (xxx > 100) | xxx (xxx > 100) | COCCNC(=O)c1ccc2nn(CC3CN(C(=O)c4ccc(Cl)c(C(F)(F)F)c4)C3)cc2c1C [Example 123, 2-({1-[4-chloro-3-(trifluoromethyl)benzoyl]azetidin-3-yl}methyl)-N-(2-methoxy-ethyl)-4-methyl-2H-indazol-5-carboxamide]
22.2 nM | xxx (xxx > 100) | xxx (xxx > 100) | Cc1c(C(=O)NCC(F)(F)F)ccc2nn(CC3CCN(C(=O)c4ccc(Oc5cccc(C(F)(F)F)c5)cc4)CC3)cc12 [Example 308, 4-methyl-N-(2,2,2-trifluoroethyl)-2-[(1-{4-[3-(trifluoromethyl)phenoxy]-benzoyl}piperidin-4-yl)methyl]-2H-indazol-5-carboxamide]
89.4 nM | xxx (xxx > 100) | xxx (xxx > 100) | Cc1c(C(=O)NCC(F)(F)F)ccc2nn(CC3CCN(C(=O)c4ccc(Oc5ccc(F)cc5F)cc4)CC3)cc12 [Example 313, 2-({1-[4-(2,4-difluorophenoxy)benzoyl]piperidin-4-yl}methyl)-4-methyl-N-(2,2,2-trifluoroethyl)-2H-indazol-5-carboxamide]
100 nM | xxx (xxx > 100) | xxx (xxx > 100) | Cc1ccc(Oc2ccc(C(=O)N3CCC(Cn4cc5c(C)c(C(=O)NCC(F)(F)F)ccc5n4)CC3)cc2)cc1 [Example 285, 4-methyl-2-({1-[4-(4-methylphenoxy)benzoyl]piperidin-4-yl}methyl)-N-(2,2,2-trifluoroethyl)-2H-indazol-5-carboxamide]
104 nM | xxx (xxx > 100) | xxx (xxx > 100) | Cc1cc2nn(CC3CN(C(=O)c4ccc(Cl)cc4)C3)cc2cc1C(=O)NCCN1CCOCC1 [Example 278, 2-{[1-(4-chlorobenzoyl)azetidin-3-yl]methyl}-6-methyl-N-(2-morpholinoethyl)-2H-indazol-5-carboxamide]
5.3 nM | xxx (xxx > 100) | xxx (xxx > 100) | COCCNC(=O)c1ccc2nn(CC3CCN(C(=O)c4ccc(OC(F)F)cc4)CC3)cc2c1C [Example 365, 2-({1-[4-(difluoromethoxy)benzoyl]piperidin-4-yl}methyl)-N-(2-methoxyethyl)-4-methyl-2H-indazol-5-carboxamide]
4.82 nM | xxx (xxx > 100) | xxx (xxx > 100) | COCCNC(=O)c1ccc2nn(CC3CCN(C(=O)c4ccc(Oc5ccc(C(F)(F)F)nc5)cc4)CC3)cc2c1C [Example 349, N-(2-methoxyethyl)-4-methyl-2-{[1-(4-{[6-(trifluoromethyl)pyridin-3-yl]oxy}-benzoyl)piperidin-4-yl]methyl}-2H-indazol-5-carboxamide]
5.8 nM | xxx (xxx > 100) | xxx (xxx > 100) | COCCNC(=O)c1ccc2nn(CC3CCN(C(=O)c4ccc(-c5ccc(OC)nc5)cc4)CC3)cc2c1C [Example 375, N-(2-methoxyethyl)-2-({1-[4-(6-methoxypyridin-3-yl)benzoyl]piperidin-4-yl}-methyl)-4-methyl-2H-indazol-5-carboxamide]
84.1 nM | xxx (xxx > 100) | xxx (xxx > 100) | Cc1c(C(=O)NCC(F)(F)F)ccc2nn(CC3CCN(C(=O)c4ccc(Oc5ccc(Cl)cn5)cc4)CC3)cc12 [Example 311, 2-[(1-{4-[(5-chloropyridin-2-yl)oxy]benzoyl}piperidin-4-yl)methyl]-4-methyl-N-(2,2,2-trifluoroethyl)-2H-indazol-5-carboxamide]
513 nM | xx (xx: 10-100) | xx (xx: 10-100) | Cc1c(C(=O)NCC(C)OCC2CC2)ccc2nn(CC3CCN(C(=O)c4ccc(C(F)(F)F)cc4)CC3)cc12 (racemic) [Example 104, (+/−)-N-[2-(cyclo-propylmethoxy)-propyl]-4-methyl-2-({1-[4-(trifluoro-mcthyl)benzoyl]-piperidin-4-yl}-methyl)-2H-indazol-5-carboxamide]
32.4 nM | xxx (xxx > 100) | xxx (xxx > 100) | COC1CN(CCNC(=O)c2ccc3nn(CC4CCN(C(=O)c5ccc(Cl)cc5)CC4)cc3c2C)C1 [Example 238, 2-{[1-(4-chlorobenzoyl)piperidin-4-yl]methyl}-N-[2-(3-methoxyazetidin-1-yl)ethyl]-4-methyl-2H-indazol-5-carboxamide]
62.6 nM | xxx (xxx > 100) | xxx (xxx > 100) | COCCNC(=O)c1ccc2nn(CC3CCN(C(=O)c4ccc(-c5cnc(C)nc5)cc4)CC3)cc2c1C [Example 379, N-(2-methoxyethyl)-4-methyl-2-({1-[4-(2-methylpyrimidin-5-yl)benzoyl]-piperidin-4-yl}methyl)-2H-indazol-5-carboxamide]
